# Laboratory results: patent publication US20150105252A1, “SUBSTITUTED PYRAZOLES AS HERBICIDES” (E I DU PONT DE NEMOURS AND COMPANY, priority 2013, published 2015)
# Legend:
# [1] = system: fall panicum; assay: Test F postemergence; type: in vivo, Panicum dichotomiflorum; details: scale 0 to 100
# From the text: (§1) Seeds of plant species selected from corn (Zea mays), soybean (Glycine max), velvetleaf (Abutilon theophrasti), lambsquarters (Chenopodium album), wild poinsettia (Euphorbia heterophylla), pigweed, palmer (palmer pigweed, Amaranthus palmeri), common waterhemp (Amaranthus rudis), surinam grass (Brachiaria decumbens), large crabgrass (Digitaria sanguinalis), crabgrass, Brazil (Brazilian crabgrass, Digitaria horizontalis), fall panicum (Panicum dichotomiflorum), giant foxtail (Setaria faberii), green foxtail (Setaria viridis), goosegrass (Eleusine indica), johnsongrass (Sorghum halepense), common ragweed (Ambrosia elation), barnyardgrass (Echinochloa crus-galli), southern sandbur (Cenchrus echinatus), arrowleaf sida (Sida rhombifolia), Italian ryegrass (Lolium multiflorum), dayflower, VA (Virginia (VA) dayflower, Commelina virginica), field bindweed (Convolvulus arvensis), cocklebur (common cocklebur, Xanthium strumarium), morningglory (Ipomoea coccinea), nightshade (eastern black nightshade, Solanum ptycanthum), kochia (Kochia scoparia), yellow nutsedge (Cyperus esculentus), and hairy beggarticks (Bidens pilosa), were planted into a silt loam soil and treated preemergence with test chemicals formulated in a non-phytotoxic solvent mixture which included a surfactant.
# (§2) At the same time, plants from these crop and weed species and also horseweed (Canada horseweed, Conyza canadensis), smartweed (ladysthumb smartweed, Polygonum persicaria), waterhemp_RES1, (ALS & Triazine resistant common waterhemp, Amaranthus rudis), and waterhemp_RES2, (ALS & HPPD resistant common waterhemp, Amaranthus rudis) were treated with postemergence applications of test chemicals formulated in the same manner. Plants ranged in height from 2 to 18 cm for postemergence treatments (1- to 4-leaf stage). Treated plants and controls were maintained in a greenhouse for 14 to 21 days, after which time all species were compared to controls and visually evaluated. Plant response ratings, summarized in Table F, are based on a scale of 0 to 100 where 0 is no effect and 100 is complete control. A dash (-) response means no test result.
# [2] = system: dayflower, VA; assay: Test E preemergence; type: in vivo, Commelina virginica; details: 21 days, scale 0 to 100
# From the text: (§3) Seeds of plant species selected from bermudagrass (Cynodon dactylon), Surinam grass (Brachiaria decumbens), crabgrass, large (large crabgrass, Digitaria sanguinalis), crabgrass, naked (naked crabgrass, Digitaria nuda), foxtail, green (green foxtail, Setaria viridis), johnsongrass (Sorghum halepense), kochia (Kochia scoparia), morningglory (pitted morningglory, Ipomoea lacunosa), nutsedge, purple (purple nutsedge, Cyperus rotundus), ragweed (common ragweed, Ambrosia elation), mustard, black (black mustard, Brassica nigra), guineagrass (Panicum maximum), dallisgrass (Paspalum dilatatum), barnyardgrass (Echinochloa crus-galli), sandbur (southern sandbur, Cenchrus echinatus), sowthistle (common sowthistle, Sonchus oleraceous), ryegrass, Italian (Italian ryegrass, Lolium multiflorum), signalgrass (broadleaf signalgrass, Brachiaria platyphylla), dayflower, VA (Virginia (VA) dayflower, Commelina virginica), bluegrass (annual bluegrass, Poa annua), quackgrass (Elytrigia repens), mallow (common mallow, Malva sylvestris), buckwheat, wild (wild buckwheat, Polygonum convolvulus), leafy spurge (Euphorbia esula), common chickweed (Stellaria media), wild poinsettia (Euphorbia heterophylla), pigweed, palmer (palmer pigweed, Amaranthus palmeri), and pigweed (redroot pigweed, Amaranthus retroflexus) were planted into a blend of loam soil and sand and treated preemergence with test chemicals formulated in a non-phytotoxic solvent mixture which included a surfactant.
# (§4) Treated plants and controls were maintained in a greenhouse for 21 days, after which time all species were compared to controls and visually evaluated. Plant response ratings, summarized in Table E, are based on a scale of 0 to 100 where 0 is no effect and 100 is complete control. A dash (-) response means no test result.
# [3] = system: pigweed, palmer; assay: Test F postemergence; type: in vivo, Amaranthus palmeri; details: scale 0 to 100
# Method in brief: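 Visual injury was scored from 0 (none) to 100 (complete control) relative to untreated controls after 14–21 days in a greenhouse. Before that, formulated compound (solvent plus surfactant) was sprayed either on silt-loam soil right after sowing or on emerged plants at the 1–4-leaf stage, 2–18 cm tall.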
# [4] = system: soybean; assay: Test F postemergence; type: in vivo, Glycine max; details: scale 0 to 100
# From the text: as §1, §2
# [5] = system: mustard, black; assay: Test E preemergence; type: in vivo, Brassica nigra; details: 21 days, scale 0 to 100
# From the text: as §3, §4
# [6] = system: common ragweed; assay: Test F postemergence; type: in vivo, Ambrosia elation; details: scale 0 to 100
# From the text: as §1, §2
# [7] = system: ryegrass, Italian; assay: Test E preemergence; type: in vivo, Lolium multiflorum; details: 21 days, scale 0 to 100
# From the text: as §3, §4
# [8] = system: barnyardgrass; assay: Test E preemergence; type: in vivo, Echinochloa crus-galli; details: 21 days, scale 0 to 100
# From the text: as §3, §4
# [9] = system: ragweed; assay: Test E preemergence; type: in vivo, Ambrosia elation; details: 21 days, scale 0 to 100
# From the text: as §3, §4
# [10] = system: morningglory; assay: Test E preemergence; type: in vivo, Ipomoea lacunosa; details: 21 days, scale 0 to 100
# From the text: as §3, §4
# [11] = system: kochia; assay: Test E preemergence; type: in vivo, Kochia scoparia; details: 21 days, scale 0 to 100
# From the text: as §3, §4
# [12] = system: signalgrass; assay: Test E preemergence; type: in vivo, Brachiaria platyphylla; details: 21 days, scale 0 to 100
# From the text: as §3, §4
# [13] = system: bermudagrass; assay: Test E preemergence; type: in vivo, Cynodon dactylon; details: 21 days, scale 0 to 100
# From the text: as §3, §4
structure (smiles),measurement,setting,value
CCOc1cc(C(=O)NCC(F)(F)F)nn1Cc1ccnc(C(F)(F)F)c1 [Compound 104],"Plant response rating, Fall Panicum","[1]; Postemergence, 31 g ai/ha",10
same,"Plant response rating, Fall Panicum","[1]; Postemergence, 125 g ai/ha",50
same,"Plant response rating, Fall Panicum","[1]; Postemergence, 250 g ai/ha",80
same,"Plant response rating, Fall Panicum","[1]; postemergence, 62 g ai/ha",40
same,"Plant response rating, Fall Panicum","[1]; postemergence, 500 g ai/ha",90
same,"Plant response rating, Dayflower, VA",[2]; 16 g ai/ha,98
same,"Plant response rating, Dayflower, VA",[2]; 31 g ai/ha,98
same,"Plant response rating, Dayflower, VA",[2]; 62 g ai/ha,100
same,"Plant response rating, Dayflower, VA",[2]; 125 g ai/ha,100
same,"Plant response rating, Dayflower, VA",[2]; 250 g ai/ha,100
same,"Plant response rating, Pigweed, Palmer","[3]; Postemergence, 31 g ai/ha",60
same,"Plant response rating, Pigweed, Palmer","[3]; Postemergence, 125 g ai/ha",70
same,"Plant response rating, Pigweed, Palmer","[3]; Postemergence, 250 g ai/ha",75
same,"Plant response rating, Pigweed, Palmer","[3]; postemergence, 62 g ai/ha",80
same,"Plant response rating, Pigweed, Palmer","[3]; postemergence, 500 g ai/ha",95
same,"Plant response rating, Soybean","[4]; Postemergence, 31 g ai/ha",95
same,"Plant response rating, Soybean","[4]; Postemergence, 125 g ai/ha",98
same,"Plant response rating, Soybean","[4]; Postemergence, 250 g ai/ha",98
same,"Plant response rating, Soybean","[4]; postemergence, 62 g ai/ha",95
same,"Plant response rating, Soybean","[4]; postemergence, 500 g ai/ha",95
same,"Plant response rating, Mustard, Black",[5]; 16 g ai/ha,100
same,"Plant response rating, Mustard, Black",[5]; 31 g ai/ha,100
same,"Plant response rating, Mustard, Black",[5]; 62 g ai/ha,100
same,"Plant response rating, Mustard, Black",[5]; 125 g ai/ha,100
same,"Plant response rating, Mustard, Black",[5]; 250 g ai/ha,100
same,"Plant response rating, Common Ragweed","[6]; Postemergence, 31 g ai/ha",40
same,"Plant response rating, Common Ragweed","[6]; Postemergence, 125 g ai/ha",70
same,"Plant response rating, Common Ragweed","[6]; Postemergence, 250 g ai/ha",98
same,"Plant response rating, Common Ragweed","[6]; postemergence, 62 g ai/ha",50
same,"Plant response rating, Common Ragweed","[6]; postemergence, 500 g ai/ha",98
same,"Plant response rating, Ryegrass, Italian",[7]; 16 g ai/ha,75
same,"Plant response rating, Ryegrass, Italian",[7]; 31 g ai/ha,98
same,"Plant response rating, Ryegrass, Italian",[7]; 62 g ai/ha,100
same,"Plant response rating, Ryegrass, Italian",[7]; 125 g ai/ha,100
same,"Plant response rating, Ryegrass, Italian",[7]; 250 g ai/ha,100
same,"Plant response rating, Barnyardgrass",[8]; 16 g ai/ha,95
same,"Plant response rating, Barnyardgrass",[8]; 31 g ai/ha,100
same,"Plant response rating, Barnyardgrass",[8]; 62 g ai/ha,100
same,"Plant response rating, Barnyardgrass",[8]; 125 g ai/ha,100
same,"Plant response rating, Barnyardgrass",[8]; 250 g ai/ha,100
same,"Plant response rating, Ragweed",[9]; 16 g ai/ha,100
same,"Plant response rating, Ragweed",[9]; 31 g ai/ha,100
same,"Plant response rating, Ragweed",[9]; 62 g ai/ha,100
same,"Plant response rating, Ragweed",[9]; 125 g ai/ha,100
same,"Plant response rating, Ragweed",[9]; 250 g ai/ha,100
same,"Plant response rating, Morningglory",[10]; 16 g ai/ha,98
same,"Plant response rating, Morningglory",[10]; 31 g ai/ha,98
same,"Plant response rating, Morningglory",[10]; 62 g ai/ha,100
same,"Plant response rating, Morningglory",[10]; 125 g ai/ha,100
same,"Plant response rating, Morningglory",[10]; 250 g ai/ha,100
same,"Plant response rating, Kochia",[11]; 16 g ai/ha,100
same,"Plant response rating, Kochia",[11]; 31 g ai/ha,100
same,"Plant response rating, Kochia",[11]; 62 g ai/ha,100
same,"Plant response rating, Kochia",[11]; 125 g ai/ha,100
same,"Plant response rating, Kochia",[11]; 250 g ai/ha,100
same,"Plant response rating, Signalgrass",[12]; 16 g ai/ha,35
same,"Plant response rating, Signalgrass",[12]; 31 g ai/ha,75
same,"Plant response rating, Signalgrass",[12]; 62 g ai/ha,100
same,"Plant response rating, Signalgrass",[12]; 125 g ai/ha,100
same,"Plant response rating, Signalgrass",[12]; 250 g ai/ha,100
same,"Plant response rating, Bermudagrass",[13]; 16 g ai/ha,90
same,"Plant response rating, Bermudagrass",[13]; 31 g ai/ha,95
same,"Plant response rating, Bermudagrass",[13]; 62 g ai/ha,98
same,"Plant response rating, Bermudagrass",[13]; 125 g ai/ha,100
same,"Plant response rating, Bermudagrass",[13]; 250 g ai/ha,100
